Experimental data: patent US20060188895A1, “Rapid prognostic assay for malignancies treated with epidermal growth factor receptor” (The Johns Hopkins University, priority 2004, published 2006)
Several values for one entry are separate records, joined by “and”; a condition that tells them apart may be missing. Identical values can stand only once.

Experiments:
HN11 cells (c-fos mRNA) = assay: in vitro c-fos mRNA expression by quantitative RT-PCR; assay type: cell-based, human; details: for c-fos after longer exposure: 24-hour exposure
Protocol: (§1) Five cell lines were used: A431, Cal27, HN11, HuCCT1, and Hep2. HN11 was a gift from Dr David Sidranski's laboratory at Johns Hopkins University (Baltimore, Md.), and A431, Cal27, HuCCT1, and Hep2 were obtained from the American Tissue Culture Collection (Manassas, Va.). A431 is a squamous cell carcinoma, Cal27, HN11 and Hep2 are derived from head and neck squamous carcinomas, and HuCCT1 is a cholangiocarcinoma. The cell lines were grown in 6-well plates with DMEM supplemented with 10% fetal bovine serum (FBS) and penicillin/streptomycin. […] The cells were incubated for 1 hour, media was aspirated, and RNA collected by direct in-well lysis with 0.5 mL of RLT (Qiagen). […] IN VITRO GROWTH INHIBITION STUDIES
(§2) In vitro RNA extraction was performed on non-confluent cells after treatment. Wells were washed with PBS and RLT lysis buffer was added. Two passes from the FNA were put in lysis buffer (Mini Rneasy manufactured by Qiagen) loaded onto a column, washed and eluted into 50 μl TE pH8. Total RNA was extracted using the RNeasy™ Mini Kit (Qiagen, Valencia, Calif.). RNA was transcribed into cDNA by reverse transcription by priming with random hexamers (M-MLTV manufactured by Promega located in Madison, Wis.). The excess hexamers were removed using a column-based clean-up kit (Qiagen).
(§3) Quantitative PCR was performed on an MX3000p thermal cycler (Stratagene) using SYBR green dye method to track the progress of the reactions with ROX dye added as reference. Beta-Globin DNA specific primers were used to test DNA contamination for each sample type. Three housekeeping genes (HPRT, UBC and SDHA) were run in parallel with test genes. The amount of change in the target gene between the control and experimental conditions was found by comparing the threshold cycle (Ct) of the target gene to the geometric mean of the threshold cycles of the housekeeping genes. The geometric mean of the Cts of each of the housekeeping genes, and a change in threshold cycle (delta Ct), between conditions were calculated (dCtHouskeeping=(CtHPRT*CtUBC*CtSDHA)control−(CtHPRT*CtUBC*CtSDHA)exp). The change in threshold cycle for the target gene was calculated directly from Ct under each condition (dCttarget=(Cttarget)control−(Cttarget)exp). The efficiency of the […] raised to its dCt gave a ratio between the control and experimental conditions normalized to the housekeeping genes (Ratio=ETarget^dCtTarget/EHousekeeping^dctHousekeeping, where E=Primer efficiency, and Ct=Threshold cycle).

Hep2 cells (c-fos mRNA) = assay: as above; assay type: cell-based, human; details: for c-fos levels with time compared to baseline: 24-hour exposure
Protocol: as §1, §2, §3

[1] = tested on: HuCCT1 cells (c-fos mRNA); assay: as above; assay type: cell-based, human; details: for c-fos levels with time compared to baseline: 24-hour exposure
Protocol: as §1, §2, §3

Cal27 cells (c-fos mRNA) = assay: as above; assay type: cell-based, human; details: for c-fos after longer exposure: 24-hour exposure
Protocol: as §1, §2, §3

A431 cells (c-fos mRNA) = assay: as above; assay type: cell-based, human
Protocol: Five cell lines were used: A431, Cal27, HN11, HuCCT1, and Hep2. […] The cell lines were grown in 6-well plates with DMEM supplemented with 10% fetal bovine serum (FBS) and penicillin/streptomycin. […] The cells were incubated for 1 hour, media was aspirated, and RNA collected by direct in-well lysis with 0.5 mL of RLT (Qiagen).
In vitro RNA extraction was performed on non-confluent cells after treatment. Wells were washed with PBS and RLT lysis buffer was added. […] Total RNA was extracted using the RNeasy™ Mini Kit (Qiagen, Valencia, Calif.). RNA was transcribed into cDNA by reverse transcription by priming with random hexamers (M-MLTV manufactured by Promega located in Madison, Wis.). The excess hexamers were removed using a column-based clean-up kit (Qiagen).
Quantitative PCR was performed on an MX3000p thermal cycler (Stratagene) using SYBR green dye method to track the progress of the reactions with ROX dye added as reference. Beta-Globin DNA specific primers were used to test DNA contamination for each sample type. […] The geometric mean of the Cts of each of the housekeeping genes, and a change in threshold cycle (delta Ct), between conditions were calculated (dCtHouskeeping=(CtHPRT*CtUBC*CtSDHA)control−(CtHPRT*CtUBC*CtSDHA)exp). The change in threshold cycle for the target gene was calculated directly from Ct under each condition (dCttarget=(Cttarget)control−(Cttarget)exp).

HuCCT1 xenograft tumors = assay: in vivo growth inhibition and tumor c-fos, xenograft; design: species or system athymic nude mice
Protocol: (§4) Five groups of 14-16 six-week-old female athymic nude mice (Harlan, Ind., US) were used. 1.5-5×10^6 A431, CAL27, HN11, HuCCT1, and Hep2 cells were injected subcutaneously in each flank. […].
(§5) FNAs on mice were performed according to standard cytopathologic practice under inhaled general anesthesia (isofluorane) using 10 cc syringes and 25-gauge needles. During each FNA procedure the first pass was smeared onto glass slides and used for morphologic analysis, (DiffQuik™ and Papanicoloau), and the second and third passes for RNA extraction. Eighteen A431 tumors, fourteen CAL27 tumors, eighteen HN11 tumors, fourteen HuCCT1 tumors, and sixteen Hep2 tumors were tested. FNAs were performed at baseline and after 14 days of therapy for each of the tumors. Tumor biopsies on patients were performed following an ultrasonographic-guided, FNA-assisted methodology, with on-site cytopathologic assessment of tissue adequacy at baseline and after 28 days of therapy.
as §2, §3

A431 xenograft tumors = assay: as above; design: species or system athymic nude mice
Protocol: as §4, §5, §2, §3

[2] = tested on: c-fos in patient tumor samples; assay: c-fos in paired patient tumor samples; assay type: in vivo, patients
Protocol: as §5, with “therapy. […]” for “therapy.”
(§6) Quantitative PCR was performed on an MX3000p thermal cycler (Stratagene) using SYBR green dye method to track the progress of the reactions with ROX dye added as reference. […] The geometric mean of the Cts of each of the housekeeping genes, and a change in threshold cycle (delta Ct), between conditions were calculated (dCtHouskeeping=(CtHPRT*CtUBC*CtSDHA)control−(CtHPRT*CtUBC*CtSDHA)exp). The change in threshold cycle for the target gene was calculated directly from Ct under each condition (dCttarget=(Cttarget)control−(Cttarget)exp). […]

[3] = tested on: metastatic or inoperable malignancy; assay: clinical response of patients treated with gefitinib; assay type: in vivo; details: five patients; 500 mg daily; 2, 4, 2, 2 and 5+ 1-month cycles
Description: Patients were required to be 18 years of age or older, and have histologically documented metastatic or inoperable malignancy amenable to sequential biopsies, and for which there was no known curative or standard palliative regimen (or failure of such regimens have occurred). […] The scientific review board of our institution granted protocol approval and patients were required to provide written informed consent prior to enrollment into the study.

[4] = tested on: Ki67 proliferation index in patient tumor samples; assay: Ki67 proliferation index in paired patient tumor samples (immunohistochemistry); assay type: in vivo, patients; details: patient #3; 500 mg/day (FIG. 7 legend)
Protocol: FNAs on mice were performed according to standard cytopathologic practice under inhaled general anesthesia (isofluorane) using 10 cc syringes and 25-gauge needles. During each FNA procedure the first pass was smeared onto glass slides and used for morphologic analysis, (DiffQuik™ and Papanicoloau), and the second and third passes for RNA extraction. […] FNAs were performed at baseline and after 14 days of therapy for each of the tumors. Tumor biopsies on patients were performed following an ultrasonographic-guided, FNA-assisted methodology, with on-site cytopathologic assessment of tissue adequacy at baseline and after 28 days of therapy.
Core biopsies from patients were processed using standard procedures (formalin-fixed, and paraffin embedded). Five-micron sections were used for Ki67 staining that was performed following the manufacturer's instructions (M7187 manufactured by DAKO located in Carpinteria, Calif.).

Cal27 cells = assay type: cell-based, human; details: CAL27 (EGF-inducible c-fos line); 0-10 μM, 72 hours, 10% FBS
[5] = tested on: CAL27 xenograft tumors (c-fos mRNA); assay: ex vivo molecular assay (c-fos) on FNA material; assay type: cell-based, mice; details: FNA material from seven CAL27 xenograft tumors; with EGF, 30 to 60 minutes
Protocol: as §5
In vitro RNA extraction was performed on non-confluent cells after treatment. […]
as §6

HN11 xenograft tumors = assay: in vivo growth inhibition and tumor c-fos, xenograft; design: species or system athymic nude mice
Protocol: as §4, §5, §2, §3

CAL27 xenograft tumors = assay: as above; design: species or system athymic nude mice
Protocol: as §4, §5, §2, §3

Hep2 xenograft tumors = assay: as above; design: species or system athymic nude mice
Protocol: as §4, §5, §2, §3

HuCCT1 cells = assay: cells; assay type: cell-based; details: Homo sapiens, HuCCT-1, MTT, 72 hours, 10% FBS, read-out: IC50 growth inhibition
Hep2 cells = assay: cells; assay type: cell-based; details: Homo sapiens, HEp-2, MTT, 72 hours, 10% FBS, read-out: IC50 growth inhibition
HN11 cells = assay type: cell-based, human; details: HN11 (EGF-inducible c-fos line); 0-10 μM, 72 hours, 10% FBS
[6] = EGF 100 ng/mL, normalized to media
[7] = 100 mgr/kg IP once a day for 14 days
[8] = day 14 treated vs control, P<0.05
[9] = 10 μM, 1-hour exposure, with EGF
[10] = 50 mgr/kg IP once a day for 14 days

“EGF: human epidermal growth factor 100 ng/mL (EGF; Sigma), EGFR ligand used as stimulus” was tested, and the “c-fos mRNA level after brief exposure to EGF” value (“c-fos mRNA level” below) (HN11 cells (c-fos mRNA); [6]) was 86 fold, the “c-fos increase upon exposure to EGF” value (Hep2 cells (c-fos mRNA); [6]) was 4.1 fold and the “c-fos increase upon exposure to EGF” value [1, 6] was 3.6 fold. For the same molecule, the “c-fos mRNA level” value (Cal27 cells (c-fos mRNA); [6]) was 151 fold and the “c-fos mRNA level” value (A431 cells (c-fos mRNA); [6]) was 126 fold.

With `COc1cc2ncnc(Nc3ccc(F)c(Cl)c3)c2cc1OCCCN1CCOCC1` [gefitinib] the tumor growth response (HuCCT1 xenograft tumors; [7]) was “no response”, the tumor c-fos levels (HuCCT1 xenograft tumors; 14 days of therapy) was “unchanged” and the tumor growth (A431 xenograft tumors; [7]) was “growth arrest”. The “effect on progressive increase in tumor c-fos expression” value (“effect on progressive increase” below) (A431 xenograft tumors; [8]) was “significantly abrogate”, the change in c-fos ([2]; patient #3, 500 mg/day (FIG. 7 legend)) was “increase” and the “tumor c-fos after 28 days, of baseline values” ([2]; two patients with decrease, 500 mg daily) was 56% and 37%. For the same molecule, the “effect on EGF-induced c-fos increment” value (HN11 cells (c-fos mRNA); [9]) was “abrogated”, the “c-fos after longer exposure” value (HN11 cells (c-fos mRNA)) was “lasting c-fos downregulation” and the “effect of drug alone on c-fos levels” value (HN11 cells (c-fos mRNA); without EGF, 1 hour) was “decreased c-fos levels”. The “c-fos levels with time compared to baseline” value (Hep2 cells (c-fos mRNA)) was “minimally increased”, the “effect of drug alone on c-fos levels” value (Hep2 cells (c-fos mRNA); without EGF, 1 hour) was “no effect” and the “c-fos levels with time compared to baseline” value [1] was “minimally increased”. For the same molecule, the “effect of drug alone on c-fos levels” value ([1]; without EGF, 1 hour) was “no effect”, the “effect on EGF-induced c-fos increment” value (Cal27 cells (c-fos mRNA); [9]) was “abrogated” and the “c-fos after longer exposure” value (Cal27 cells (c-fos mRNA)) was “lasting c-fos downregulation”. The “effect of drug alone on c-fos levels” value (Cal27 cells (c-fos mRNA); without EGF, 1 hour) was “decreased c-fos levels”, the objective response [3] was “No objective, confirmed responses” and the “reduction of Ki67” value [4] was 45%.

In the case of `C#Cc1cccc(Nc2ncnc3cc(OCCOC)c(OCCOC)cc23)c1` [erlotinib], the “in vitro sensitivity (growth inhibition, MTT)” value (Cal27 cells) is reported as “high”, the “effect on EGF-induced c-fos upregulation” value [5] is reported as “abrogation of this response” and the tumor growth (HN11 xenograft tumors; [10]) is reported as “growth arrest”. The “effect on progressive increase” value (HN11 xenograft tumors; [8]) was “significantly abrogate”, the tumor growth (CAL27 xenograft tumors; [10]) was “growth arrest” and the “effect on progressive increase” value (CAL27 xenograft tumors; day 14 treated vs control, P=0.07) was “significantly abrogate”. For the same molecule, the tumor growth response (Hep2 xenograft tumors; [10]) was “no response”, the tumor c-fos levels (Hep2 xenograft tumors; 14 days of therapy) was “unchanged” and the IC50 (HuCCT1 cells) was over 10 µM. The “c-fos after longer exposure” value (HN11 cells (c-fos mRNA)) was “lasting c-fos downregulation”, the “c-fos levels with time compared to baseline” value (Hep2 cells (c-fos mRNA)) was “minimally increased” and the “c-fos levels with time compared to baseline” value [1] was “minimally increased”. For the same molecule, the “c-fos after longer exposure” value (Cal27 cells (c-fos mRNA)) was “lasting c-fos downregulation”, the IC50 (Hep2 cells) was over 10 µM and the “in vitro sensitivity (growth inhibition, MTT)” value (HN11 cells) was “high”. The “c-fos after longer exposure” value (A431 cells (c-fos mRNA); 24-hour exposure) was “lasting c-fos downregulation”.
